{
  "source": "patent US20190388490A1",
  "about": "“PLANT EXTRACTIONS, COMPOSITIONS CONTAINING SAME, AND USES THEREOF” (priority 2010, published 2019)",
  "assay": "Free radical scavenging by ESR with DPPH",
  "details": "100 μg mixed with alcohol solution of DPPH for 2 minutes",
  "procedure": "The free radical scavenging capacity of the Bacopa monniera extract product was evaluated using spectrophotometric and electron spin resonance (ESR) techniques. ESR is considered to be the least ambiguous method for the detection of free radicals. 2,2-Diphenyl -1-picrylhydrazyl (DPPH) was used as a stable free radical. An alcohol solution of DPPH was mixed with 100 μg of a Bacopa monniera extract product for 2 minutes and then ESR measurements were conducted. Quercetine was used as a positive control for scavenging the free radicals.",
  "data": [
    {"molecule": "O=c1c(O)c(-c2ccc(O)c(O)c2)oc2cc(O)cc(O)c12", "note": "[quercetine, Quercetine]", "values": [
      {"measurement": "effect on DPPH free radical ESR peak", "result": "slight change in peak height"}
    ]}
  ]
}
